Holding throughout (experiment): relative viability (nuclei count vs DMSO), 5 days (fraction); higher = more cells survive
Compound in the experiment “Motesanib + Dasatinib”: CC1(C)CNc2cc(NC(=O)c3cccnc3NCc3ccncc3)ccc21 [Motesanib] + Cc1nc(Nc2ncc(C(=O)Nc3c(C)cccc3Cl)s2)cc(N2CCN(CCO)CC2)n1 [Dasatinib] (partner 0.075 µM)
An outline of the steps:
(§1)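 Lung cancer cell lines in 1536-well plates were dosed by pin tool the day after seeding, either with one drug alone or with a fixed anchor-drug dose plus five library-drug doses (not always all listed) in √10 steps. After 5 days, cells were fixed and their nuclei stained in one step (final 0.05% Triton X-100, 1% formaldehyde, 1 ug/ml Hoechst), then counted on 4× images. Relative viability is the nuclei count in treated wells divided by that in vehicle wells. Values are medians of duplicate plates.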

Compound in experiment [1]: C[C@@]1(C(=O)Nc2ccc(F)nc2)CCCN1c1nc(Nc2cc(C3CC3)n[nH]2)c2cccn2n1 + CC(=O)Nc1cccc(-n2c(=O)n(C3CC3)c(=O)c3c(Nc4ccc(I)cc4F)n(C)c(=O)c(C)c32)c1 [Trametinib] (partner 0.02 µM)
An outline of the steps:
as §1

Compound in experiment [2]: C[C@@]1(C(=O)Nc2ccc(F)nc2)CCCN1c1nc(Nc2cc(C3CC3)n[nH]2)c2cccn2n1 + CC1(C)CCC(c2ccc(Cl)cc2)=C(CN2CCN(c3ccc(C(=O)NS(=O)(=O)c4ccc(N[C@H](CCN5CCOCC5)CSc5ccccc5)c(S(=O)(=O)C(F)(F)F)c4)cc3)CC2)C1 [Navitoclax] (partner 0.5 µM)
An outline of the steps: as §1

Compound in experiment [3]: C[C@@]1(C(=O)Nc2ccc(F)nc2)CCCN1c1nc(Nc2cc(C3CC3)n[nH]2)c2cccn2n1 + COc1cccc2cc(-c3nc([C@H]4CC[C@H](C(=O)O)CC4)n4ncnc(N)c34)[nH]c12 [OSI-027] (partner 0.5 µM)
The method, boiled down:
as §1

On to UMC-11, for which the relative viability with Motesanib + Dasatinib (first compound 0.01 µM) worked out at 0.435; with Motesanib + Dasatinib (first compound 0.03162 µM) it was 0.447; with Motesanib + Dasatinib (first compound 0.1 µM) it was 0.489; with Motesanib + Dasatinib (first compound 0.3162 µM) it was 0.477; with Motesanib + Dasatinib (first compound 1 µM), 0.471; in experiment [1] (first compound 0.04 µM) it was 0.703. For the same cell line, the relative viability in experiment [1] (first compound 0.1265 µM) worked out at 0.671; in experiment [1] (first compound 0.4 µM), 0.651; in experiment [1] (first compound 1.265 µM), 0.648; in experiment [2] (first compound 0.04 µM), 0.365; in experiment [2] (first compound 0.1265 µM), 0.293; in experiment [2] (first compound 0.4 µM) it was 0.249. For the same cell line, the relative viability turned out to be 0.269 in experiment [2] (first compound 1.265 µM); 0.531 in experiment [3] (first compound 0.04 µM); 0.416 in experiment [3] (first compound 0.1265 µM); 0.485 in experiment [3] (first compound 0.4 µM); 0.37 in experiment [3] (first compound 1.265 µM).

These data come from the supplement of paper PMC10307832.
